According to patent US20240252440A1, “COMPOSITIONS, METHODS AND SYSTEMS FOR AEROSOL DRUG DELIVERY” (ASTRAZENECA PHARMACEUTICALS LP, priority 2021, published 2024):

Assay: Particle size distribution by laser diffraction
Format: physicochemical
Excerpt: When referred to herein, the term “optical diameter” indicates the size of a particle as measured by the Fraunhofer diffraction mode using a laser diffraction particle size analyzer equipped with a dry powder dispenser (e.g., Sympatec GmbH, Clasthal-Zellerfeld, Germany).
Suspending particles were manufactured by spray drying an emulsion of PFOB (perfluorooctyl bromide) and water stabilized by DSPC (1,2-Distearoyl-sn-Glycero-3-Phosphocholine). […] The particle size distribution of the suspending particles was determined by laser diffraction.
Active agent particles formed of budesonide, 16,17-(butylidenebis(oxy))-11,21-dihydroxy-(11-β,16-α)-pregna-1,4-diene-3,20-dione, were formed by micronizing budesonide using a jet mill. The particle size distribution of the budesonide (BD) was determined by laser diffraction.

Compound | optical diameter exhibited by 50% by volume of the particles | optical diameter exhibited by 90% by volume of the particles
COc1ccc(CC(C)NCC(O)c2ccc(O)c(NC=O)c2)cc1.O=C(O)/C=C/C(=O)O (racemic) [formoterol fumarate, (±)-2-hydroxy-5-[(1RS)-1-hydroxy-2-[[(1RS)-2-(4-methoxyphenyl)-1-methylethyl]-amino]ethyl]formanilide fumarate] | smaller than 1.6 μm | smaller than 3.9 μm
C[N+]1(C)CCC(OC(=O)C(O)(c2ccccc2)C2CCCC2)C1.[Br-] (stereo not drawn) [glycopyrrolate, Pyrrolidinium, 3-((cyclopentylhydroxyphenylacetyl)oxy)-1,1-dimethyl-, bromide] | smaller than 2.1 μm | smaller than 5 μm
albuterol sulfate | smaller than 1.5 μm | smaller than 3.3 μm
